# Assay results published in patent publication US20250369863A1, “METHOD FOR DETERMINING A STATUS OF A CO-CULTURE” (Universiteit Antwerpen, priority 2022, published 2025).
# Test system: co-culture of patient-derived pancreatic tumor organoids (TCO) and cancer associated fibroblast (SCT)
# Test: co-culture of patient-derived pancreatic tumor organoids and cancer associated fibroblasts, stroma parameters from fluorescent images
# Assay type: cell-based
# Conditions: for stroma growth rate (normalized stromal growth rate): FIG. 5, FGF2 10 ng/ml; for stroma growth rate (normalized stromal growth rate) / stromal density of the micro-tumor / contractility: Nintedanib 0.5 μM; for stroma growth rate (normalized stromal growth rate) / stromal density of the micro-tumor: TGF-B 5 ng/ml; for stroma size (area): FIG. 6; for stroma size (area) / stromal size ratio: dynamic (over time) kinetic quantification; for stromal density of the micro-tumor: FIG. 10, static endpoint, compared to the control; for stromal density of the micro-tumor / contractility: FGF2 10 ng/mL; for contractility: FIGS. 7 and 8; for stromal size ratio: FIG. 9
# Description: A co-culture was prepared of patient-derived pancreatic tumor organoids (TCO) and cancer associated fibroblast (SCT), wherein the TCO and the SCT were fluorescently labelled with the first and second fluorescent label respectively. First and second fluorescent images were recorded and the status of the sample was determined with and without contacting the sample with Nintedanib, TGFB or FGF2. Nintedanib is a known anti-fibrotic drug that inhibits fibroblast proliferation and motility. TGFB and FGF2 are growth factors that can stimulate fibroblast proliferation.
Compound,stroma growth rate (normalized stromal growth rate),stroma size (area),stromal density of the micro-tumor,contractility,micro-tumor formation driven by activated fibroblasts,stromal size ratio,stromal size ratio (listed as Nintedanib),"motility (shown by contractility, stromal size ratio and stromal density (FIGS. 7 to 10))"
FGF2: growth factor that can stimulate fibroblast proliferation,stimulated the strongest,stimulated the strongest,only had marginal effects,have been contracted together,,,,
TGFB,,,only had marginal effects,,,,,
"COC(=O)c1ccc2c(c1)NC(=O)/C2=C(\Nc1ccc(N(C)C(=O)CN2CCN(C)CC2)cc1)c1ccccc1 [nintedanib, Nintedanib]",inhibited,inhibited,reduced,lack of contractility,inhibited,reduced,inhibitory effect,inhibited
